Data published in patent US4261883A (priority 1979, dated 1981).
Read-outs that look alike come from different tables or passages of the source.

Assays:
[1] = tested on: opioid receptors in caudate nuclei homogenate S4e; assay: affinity labeling of opiate receptor sites by irradiation of azido compounds, caudate nuclei homogenate S4e; type: binding, bovine; details: normorphine hydrochloride added before the azide and irradiation
guinea pig ileum = guinea pig ileum test (inhibition of voltage induced contractions); type: cell-based; details: read-out: I.D.50 in the guinea pig ileum test

Compound	effect on the deactivation of the opioid receptors by the azide compounds [1]	IC50 (guinea pig ileum; Cavia porcellus) [nM]	IC50 (guinea pig ileum) [nM]
Oc1ccc2c3c1O[C@H]1[C@@H](O)C=C[C@H]4[C@@H](C2)NCC[C@@]341 [normorphine]	inhibit the deactivation of the opioid receptors	120	
(D-ala^ 2)met-enkephalinamide			12
